Measured values reported in ChEMBL document CHEMBL5614394, “Novel pleuromutilin derivatives conjugated with phenyl-sulfide and boron-containing moieties as potent antibacterial agents against antibiotic-resistant bacteria” (Eur J Med Chem, 2024).
Values after ≈ are worked out from the molar mass of the structure shown. Active and inactive are the calls of the source. The rule behind the calls is not given here.

Tested on: Staphylococcus epidermidis
Test: Antibacterial activity against Staphylococcus epidermidis ATCC 12228 assessed as inhibition of visible growth of bacteria incubated for 24 hrs by CLSI protocol based broth-dilution method
Format: functional
Settings: not given

SMILES	MIC [µg/mL]
C=C[C@]1(C)C[C@@H](OC(=O)CSc2cccc(NC(=O)c3ccc(B(O)O)cc3)c2)[C@]2(C)[C@H](C)CC[C@]3(CCC(=O)[C@H]32)[C@@H](C)[C@@H]1O	0.016 (≈ 0.0253 µM)

Tested on: not listed separately
Test: Stability in rat liver microsomes assessed as drug metabolism at 1 uM measured within 1 hrs in presence of NADPH by LC-MS analysis
Format: ADME, Microsome
Settings: read-out: Drug metabolism

SMILES	metabolised at 1 h, 1 µM [%]
C=C[C@]1(C)C[C@@H](OC(=O)CSc2cccc(NC(=O)c3ccc(B(O)O)cc3)c2)[C@]2(C)[C@H](C)CC[C@]3(CCC(=O)[C@H]32)[C@@H](C)[C@@H]1O	84.6

Tested on: Staphylococcus simulans
Test: Antibacterial activity against pleuromutilin-resistant Staphylococcus simulans isolate 55-1 harboring cfr+ genotype assessed as inhibition of visible growth of bacteria incubated for 24 hrs by CLSI protocol based broth-dilution method
Format: functional
Settings: not given

SMILES	MIC [µg/mL]
C=C[C@]1(C)C[C@@H](OC(=O)CSc2cccc(NC(=O)c3ccc(B(O)O)cc3)c2)[C@]2(C)[C@H](C)CC[C@]3(CCC(=O)[C@H]32)[C@@H](C)[C@@H]1O	1 (≈ 1.58 µM)

Tested on: Staphylococcus aureus
Test: Antibacterial activity against methicilin-resistant Staphylococcus aureus isolate 15-2 assessed as inhibition of visible growth of bacteria incubated for 24 hrs by CLSI protocol based broth-dilution method
Format: functional
Settings: not given

SMILES	MIC [µg/mL]
C=C[C@]1(C)C[C@@H](OC(=O)CSc2cccc(NC(=O)c3ccc(B(O)O)cc3)c2)[C@]2(C)[C@H](C)CC[C@]3(CCC(=O)[C@H]32)[C@@H](C)[C@@H]1O	≤ 0.03

Tested on: Staphylococcus aureus
Test: Antibacterial activity against methicillin-resistant Staphylococcus aureus USA 300 assessed as inhibition of bacterial growth at 1 times of MIC measured upto 24 hrs by time-kill kinetics assay
Format: functional, organism-based
Settings: not given

SMILES	Activity
C=C[C@]1(C)C[C@@H](OC(=O)CSc2cccc(NC(=O)c3ccc(B(O)O)cc3)c2)[C@]2(C)[C@H](C)CC[C@]3(CCC(=O)[C@H]32)[C@@H](C)[C@@H]1O	Active

Tested on: Acinetobacter baumannii
Test: Antibacterial activity against Acinetobacter baumannii ATCC 19606 assessed as inhibition of visible growth of bacteria incubated for 24 hrs by CLSI protocol based broth-dilution method
Format: functional
Settings: not given

SMILES	MIC [µg/mL]
C=C[C@]1(C)C[C@@H](OC(=O)CSc2cccc(NC(=O)c3ccc(B(O)O)cc3)c2)[C@]2(C)[C@H](C)CC[C@]3(CCC(=O)[C@H]32)[C@@H](C)[C@@H]1O	> 64

Tested on: Enterococcus faecalis
Test: Antibacterial activity against Enterococcus faecalis HB 24-4 assessed as inhibition of visible growth of bacteria incubated for 24 hrs by CLSI protocol based broth-dilution method
Format: functional
Settings: not given

SMILES	MIC [µg/mL]
C=C[C@]1(C)C[C@@H](OC(=O)CSc2cccc(NC(=O)c3ccc(B(O)O)cc3)c2)[C@]2(C)[C@H](C)CC[C@]3(CCC(=O)[C@H]32)[C@@H](C)[C@@H]1O	0.25 (≈ 0.395 µM)

Tested on: Staphylococcus aureus
Test: Antibacterial activity against methicillin-resistant Staphylococcus aureus USA 300 assessed as number of colonies with prevalence of spontaneous mutation at 4 times of MIC incubated for 48 hrs by agar dilution assay
Format: functional
Settings: not given

SMILES	Activity
C=C[C@]1(C)C[C@@H](OC(=O)CSc2cccc(NC(=O)c3ccc(B(O)O)cc3)c2)[C@]2(C)[C@H](C)CC[C@]3(CCC(=O)[C@H]32)[C@@H](C)[C@@H]1O	<4.7 10^-11No_unit

Tested on: Staphylococcus epidermidis
Test: Antibacterial activity against methicillin-sensitive Staphylococcus epidermidis isolate 20-15 assessed as inhibition of visible growth of bacteria incubated for 24 hrs by CLSI protocol based broth-dilution method
Format: functional
Settings: not given

SMILES	MIC [µg/mL]
C=C[C@]1(C)C[C@@H](OC(=O)CSc2cccc(NC(=O)c3ccc(B(O)O)cc3)c2)[C@]2(C)[C@H](C)CC[C@]3(CCC(=O)[C@H]32)[C@@H](C)[C@@H]1O	≤ 0.03

Tested on: Staphylococcus aureus
Test: Antibacterial activity against Staphylococcus aureus ATCC 29213 assessed as inhibition of visible growth of bacteria incubated for 24 hrs by CLSI protocol based broth-dilution method
Format: functional
Settings: not given

SMILES	MIC [µg/mL]
C=C[C@]1(C)C[C@@H](OC(=O)CSc2cccc(NC(=O)c3ccc(B(O)O)cc3)c2)[C@]2(C)[C@H](C)CC[C@]3(CCC(=O)[C@H]32)[C@@H](C)[C@@H]1O	≤ 0.016

Tested on: not listed separately
Test: Stability in mouse liver microsomes assessed as drug metabolism at 1 uM measured within 1 hrs in presence of NADPH by LC-MS analysis
Format: ADME, Microsome
Settings: read-out: Drug metabolism

SMILES	metabolised at 1 h, 1 µM [%]
C=C[C@]1(C)C[C@@H](OC(=O)CSc2cccc(NC(=O)c3ccc(B(O)O)cc3)c2)[C@]2(C)[C@H](C)CC[C@]3(CCC(=O)[C@H]32)[C@@H](C)[C@@H]1O	87.5

Tested on: Staphylococcus aureus
Test: Bactericidal activity against methicillin-resistant Staphylococcus aureus USA 300 assessed as inhibition of bacterial growth at 8 times of MIC by time kill kinetics assay
Format: functional, organism-based
Settings: time <= 24.0 hrs, TDE = time-dependent effect

SMILES	Activity
C=C[C@]1(C)C[C@@H](OC(=O)CSc2cccc(NC(=O)c3ccc(B(O)O)cc3)c2)[C@]2(C)[C@H](C)CC[C@]3(CCC(=O)[C@H]32)[C@@H](C)[C@@H]1O	Tde

Tested on: Staphylococcus aureus
Test: Antibacterial activity against methicillin-resistant Staphylococcus aureus J1 harboring (lsa(E)+) genotype assessed as inhibition of visible growth of bacteria incubated for 24 hrs by CLSI protocol based broth-dilution method
Format: functional
Settings: not given

SMILES	MIC [µg/mL]
C=C[C@]1(C)C[C@@H](OC(=O)CSc2cccc(NC(=O)c3ccc(B(O)O)cc3)c2)[C@]2(C)[C@H](C)CC[C@]3(CCC(=O)[C@H]32)[C@@H](C)[C@@H]1O	2 (≈ 3.16 µM)

Tested on: not listed separately
Test: Stability in human liver microsomes assessed as drug metabolism at 1 uM measured within 1 hrs in presence of NADPH by LC-MS analysis
Format: ADME, Microsome
Settings: read-out: Drug metabolism

SMILES	metabolised at 1 h, 1 µM [%]
C=C[C@]1(C)C[C@@H](OC(=O)CSc2cccc(NC(=O)c3ccc(B(O)O)cc3)c2)[C@]2(C)[C@H](C)CC[C@]3(CCC(=O)[C@H]32)[C@@H](C)[C@@H]1O	78.8

Tested on: Streptococcus pneumoniae
Test: Antibacterial activity against penicillin resistant Streptococcus pneumoniae isolate 20-1 assessed as inhibition of visible growth of bacteria incubated for 24 hrs by CLSI protocol based broth-dilution method
Format: functional
Settings: not given

SMILES	MIC [µg/mL]
C=C[C@]1(C)C[C@@H](OC(=O)CSc2cccc(NC(=O)c3ccc(B(O)O)cc3)c2)[C@]2(C)[C@H](C)CC[C@]3(CCC(=O)[C@H]32)[C@@H](C)[C@@H]1O	0.06 (≈ 0.0947 µM)

Tested on: Staphylococcus aureus
Test: Antibacterial activity against Staphylococcus aureus USA 300 assessed as inhibition of visible growth of bacteria incubated for 24 hrs by CLSI protocol based broth-dilution method
Format: functional
Settings: not given

SMILES	MIC [µg/mL]
C=C[C@]1(C)C[C@@H](OC(=O)CSc2cccc(NC(=O)c3ccc(B(O)O)cc3)c2)[C@]2(C)[C@H](C)CC[C@]3(CCC(=O)[C@H]32)[C@@H](C)[C@@H]1O	≤ 0.03

Tested on: Staphylococcus aureus
Test: Antibacterial activity against Staphylococcus aureus ATCC 25923 assessed as inhibition of visible growth of bacteria incubated for 24 hrs by CLSI protocol based broth-dilution method
Format: functional
Settings: not given

SMILES	MIC [µg/mL]
C=C[C@]1(C)C[C@@H](OC(=O)CSc2cccc(NC(=O)c3ccc(B(O)O)cc3)c2)[C@]2(C)[C@H](C)CC[C@]3(CCC(=O)[C@H]32)[C@@H](C)[C@@H]1O	≤ 0.03

Tested on: Enterococcus faecium
Test: Antibacterial activity against pleuromutilin-resistant Enterococcus faecium 18SC29-2 harboring (lsa(E)-) genotype assessed as inhibition of visible growth of bacteria incubated for 24 hrs by CLSI protocol based broth-dilution method
Format: functional
Settings: not given

SMILES	MIC [µg/mL]
C=C[C@]1(C)C[C@@H](OC(=O)CSc2cccc(NC(=O)c3ccc(B(O)O)cc3)c2)[C@]2(C)[C@H](C)CC[C@]3(CCC(=O)[C@H]32)[C@@H](C)[C@@H]1O	≤ 0.03

Tested on: Enterococcus faecium
Test: Antibacterial activity against pleuromutilin-resistant Enterococcus faecium 18FJZ1-1 harboring (lsa(E)+) genotype assessed as inhibition of visible growth of bacteria incubated for 24 hrs by CLSI protocol based broth-dilution method
Format: functional
Settings: not given

SMILES	MIC [µg/mL]
C=C[C@]1(C)C[C@@H](OC(=O)CSc2cccc(NC(=O)c3ccc(B(O)O)cc3)c2)[C@]2(C)[C@H](C)CC[C@]3(CCC(=O)[C@H]32)[C@@H](C)[C@@H]1O	0.5 (≈ 0.789 µM)

Tested on: Staphylococcus aureus
Test: Antibacterial activity against methicillin-resistant Staphylococcus aureus USA 300 assessed as number of colonies with prevalence of spontaneous mutation at 8 times of MIC incubated for 48 hrs by agar dilution assay
Format: functional
Settings: not given

SMILES	Activity
C=C[C@]1(C)C[C@@H](OC(=O)CSc2cccc(NC(=O)c3ccc(B(O)O)cc3)c2)[C@]2(C)[C@H](C)CC[C@]3(CCC(=O)[C@H]32)[C@@H](C)[C@@H]1O	<4.7 10^-11No_unit

Tested on: Escherichia coli
Test: Antibacterial activity against Escherichia coli ATCC 25922 assessed as inhibition of visible growth of bacteria incubated for 24 hrs by CLSI protocol based broth-dilution method
Format: functional
Settings: not given

SMILES	MIC [µg/mL]
C=C[C@]1(C)C[C@@H](OC(=O)CSc2cccc(NC(=O)c3ccc(B(O)O)cc3)c2)[C@]2(C)[C@H](C)CC[C@]3(CCC(=O)[C@H]32)[C@@H](C)[C@@H]1O	64 (≈ 101 µM)

Tested on: Staphylococcus aureus
Test: Antibacterial activity against Staphylococcus aureus ATCC 33591 assessed as inhibition of visible growth of bacteria incubated for 24 hrs by CLSI protocol based broth-dilution method
Format: functional
Settings: not given

SMILES	MIC [µg/mL]
C=C[C@]1(C)C[C@@H](OC(=O)CSc2cccc(NC(=O)c3ccc(B(O)O)cc3)c2)[C@]2(C)[C@H](C)CC[C@]3(CCC(=O)[C@H]32)[C@@H](C)[C@@H]1O	≤ 0.03

Tested on: Streptococcus pneumoniae
Test: Antibacterial activity against penicillin sensitive Streptococcus pneumoniae isolate 20-1 assessed as inhibition of visible growth of bacteria incubated for 24 hrs by CLSI protocol based broth-dilution method
Format: functional
Settings: not given

SMILES	MIC [µg/mL]
C=C[C@]1(C)C[C@@H](OC(=O)CSc2cccc(NC(=O)c3ccc(B(O)O)cc3)c2)[C@]2(C)[C@H](C)CC[C@]3(CCC(=O)[C@H]32)[C@@H](C)[C@@H]1O	≤ 0.03

Tested on: Staphylococcus aureus
Test: Antibacterial activity against Staphylococcus aureus ATCC 700788 assessed as inhibition of visible growth of bacteria incubated for 24 hrs by CLSI protocol based broth-dilution method
Format: functional
Settings: not given

SMILES	MIC [µg/mL]
C=C[C@]1(C)C[C@@H](OC(=O)CSc2cccc(NC(=O)c3ccc(B(O)O)cc3)c2)[C@]2(C)[C@H](C)CC[C@]3(CCC(=O)[C@H]32)[C@@H](C)[C@@H]1O	≤ 0.03

Tested on: Staphylococcus aureus
Test: Antibacterial activity against Staphylococcus aureus ATCC 43300 assessed as inhibition of visible growth of bacteria incubated for 24 hrs by CLSI protocol based broth-dilution method
Format: functional
Settings: not given

SMILES	MIC [µg/mL]
C=C[C@]1(C)C[C@@H](OC(=O)CSc2cccc(NC(=O)c3ccc(B(O)O)cc3)c2)[C@]2(C)[C@H](C)CC[C@]3(CCC(=O)[C@H]32)[C@@H](C)[C@@H]1O	≤ 0.03

Tested on: Enterococcus faecalis
Test: Antibacterial activity against Enterococcus faecalis ATCC 29212 assessed as inhibition of visible growth of bacteria incubated for 24 hrs by CLSI protocol based broth-dilution method
Format: functional
Settings: not given

SMILES	MIC [µg/mL]
C=C[C@]1(C)C[C@@H](OC(=O)CSc2cccc(NC(=O)c3ccc(B(O)O)cc3)c2)[C@]2(C)[C@H](C)CC[C@]3(CCC(=O)[C@H]32)[C@@H](C)[C@@H]1O	0.25 (≈ 0.395 µM)

Tested on: Staphylococcus aureus
Test: Antibacterial activity against Staphylococcus aureus ATCC 700699 assessed as inhibition of visible growth of bacteria incubated for 24 hrs by CLSI protocol based broth-dilution method
Format: functional
Settings: not given

SMILES	MIC [µg/mL]
C=C[C@]1(C)C[C@@H](OC(=O)CSc2cccc(NC(=O)c3ccc(B(O)O)cc3)c2)[C@]2(C)[C@H](C)CC[C@]3(CCC(=O)[C@H]32)[C@@H](C)[C@@H]1O	≤ 0.03
